PubChem BioAssay (NCI)
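Here, GI50 denotes the concentration required for 50% inhibition of growth. TGI marks complete inhibition of growth.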

What was measured:
Test in all cases: growth of human tumour cells (NCI), 384-well format
SNB-19 CNS = test system: SNB-19 CNS
NCI-H23 lung = test system: NCI-H23 lung
UACC-62 melanoma = test system: UACC-62 melanoma
NCI/ADR-RES ovarian = test system: NCI/ADR-RES ovarian
RPMI-8226 leukemia = test system: RPMI-8226 leukemia
HL-60(TB) leukemia = test system: HL-60(TB) leukemia
SK-OV-3 ovarian = test system: SK-OV-3 ovarian
CAKI-1 renal = test system: CAKI-1 renal
UO-31 renal = test system: UO-31 renal
T-47D breast = test system: T-47D breast
MCF7 breast = test system: MCF7 breast
KM12 colon = test system: KM12 colon
RXF 393 renal = test system: RXF 393 renal
SF-295 CNS = test system: SF-295 CNS
K-562 leukemia = test system: K-562 leukemia
CCRF-CEM leukemia = test system: CCRF-CEM leukemia
MDA-MB-468 breast = test system: MDA-MB-468 breast
A549 NSCLC = test system: A549 NSCLC
M14 melanoma = test system: M14 melanoma
OVCAR-5 ovarian = test system: OVCAR-5 ovarian
OVCAR-8 ovarian = test system: OVCAR-8 ovarian
HOP-62 NSCLC = test system: HOP-62 NSCLC
NCI-H226 lung = test system: NCI-H226 lung
BT-549 breast = test system: BT-549 breast
OVCAR-3 ovarian = test system: OVCAR-3 ovarian
786-0 renal = test system: 786-0 renal
NCI-H522 lung = test system: NCI-H522 lung
SF-539 CNS = test system: SF-539 CNS
HT29 colon = test system: HT29 colon
SW-620 colon = test system: SW-620 colon
LOX IMVI melanoma = test system: LOX IMVI melanoma
U251 glioblastoma = test system: U251 glioblastoma
ACHN renal = test system: ACHN renal
SN12C renal = test system: SN12C renal
HCT-116 colon = test system: HCT-116 colon
HCT-15 colon = test system: HCT-15 colon
SNB-75 CNS = test system: SNB-75 CNS
A498 renal = test system: A498 renal
MOLT-4 leukemia = test system: MOLT-4 leukemia
DU-145 prostate = test system: DU-145 prostate
SF-268 CNS = test system: SF-268 CNS

S=P(N1CC1)(N1CC1)N1CC1
GI50 (SNB-19 CNS): 41.6 µM | GI50 (NCI-H23 lung): 17.3 µM | TGI (NCI-H23 lung): 99.5 µM | GI50 (UACC-62 melanoma): 11 µM | GI50 (NCI/ADR-RES ovarian): 30.1 µM | GI50 (RPMI-8226 leukemia): 12 µM | TGI (RPMI-8226 leukemia): 36.4 µM | GI50 (HL-60(TB) leukemia): 1.27 µM | TGI (HL-60(TB) leukemia): 2.85 µM | GI50 (SK-OV-3 ovarian): 29.8 µM | GI50 (CAKI-1 renal): 17.8 µM | GI50 (UO-31 renal): 74.4 µM | GI50 (T-47D breast): 93.6 µM | GI50 (MCF7 breast): 21.2 µM | GI50 (KM12 colon): 93.6 µM | GI50 (RXF 393 renal): 53.9 µM | GI50 (SF-295 CNS): 11.3 µM | TGI (SF-295 CNS): 31.3 µM | GI50 (K-562 leukemia): 74 µM | GI50 (CCRF-CEM leukemia): 4.2 µM | TGI (CCRF-CEM leukemia): 11 µM | GI50 (MDA-MB-468 breast): 3.58 µM | TGI (MDA-MB-468 breast): 18.7 µM | GI50 (A549 NSCLC): 38.4 µM | GI50 (M14 melanoma): 24.8 µM | GI50 (OVCAR-5 ovarian): 70.4 µM | GI50 (OVCAR-8 ovarian): 28 µM | GI50 (HOP-62 NSCLC): 8.65 µM | TGI (HOP-62 NSCLC): 31.8 µM | GI50 (NCI-H226 lung): 61.3 µM | GI50 (BT-549 breast): 29 µM | GI50 (OVCAR-3 ovarian): 43.3 µM | GI50 ([…]-0 renal): 32.7 µM | GI50 (NCI-H522 lung): 45.9 µM | GI50 (SF-539 CNS): 20.2 µM | TGI (SF-539 CNS): 92.8 µM | GI50 (HT29 colon): 59.4 µM | GI50 (SW-620 colon): 61.6 µM | GI50 (LOX IMVI melanoma): 24.9 µM | GI50 (U251 glioblastoma): 20.7 µM | GI50 (ACHN renal): 19.9 µM | TGI (ACHN renal): 63.4 µM | GI50 (SN12C renal): 9.52 µM | GI50 (HCT-116 colon): 34.1 µM | GI50 (HCT-15 colon): 33.7 µM | GI50 (SNB-75 CNS): 22 µM | GI50 (A498 renal): 39.4 µM | GI50 (MOLT-4 leukemia): 0.4 µM | TGI (MOLT-4 leukemia): 1.49 µM | GI50 (DU-145 prostate): 7.82 µM | TGI (DU-145 prostate): 98.9 µM | GI50 (SF-268 CNS): 9.43 µM
